Measurements from US20210356467A1, “SYSTEMS AND METHOD FOR SCREENING SMALL MOLECULES OF INTEREST” (TECHNOLOGY INNOVATION MOMENTUM FUND (ISRAEL) LIMITED …, priority 2018, published 2021).

Experiments:
[1] = target: T1, IKZF1 ubiquitylation by CRBN (Homo sapiens, UniProt Q13422+Q96SW2); assay: split-CAT selective growth assay, IKZF1 as ubiquitylation target of CRBN; type: cell-based
T1 construct: expressed in transfected cells; host or cells: E. coli
Protocol: (§1) Activity assays with split-CAT system: Vectors containing the split-CAT ubiquitylation system were co-transformed into E. coli and grew in the presence of the relevant antibiotics (e.g. kanamycin and streptomycin). Overnight culture was harvested and the media was replaced with fresh LB containing 8 μg/ml chloramphenicol. The culture was diluted to O.D.600=0.2 and dispended to a 96 or 384 well plate supplemented with potential small molecule drugs or DMSO only. The plate was placed in a shaker/incubator/reader and OD600 was continuously monitored during the growth.
(§2) This procedure was used to read the ubiquitylation dependent growth of IKZF1, IKZF3, CK1a and GSPT1.
(§3) In a first experiment, IKZF1 (Q13422) and GSPT1 (P15170) were analyzed as potential ubiquitylation targets. These targets were coexpressed with C-CAT-Ub and E1 and the Cereblon-E2 (Ubc4) fusion. […] These assays were performed in 96 and 384 well plates.

[2] = target: T2, CK1α ubiquitylation by CRBN (Homo sapiens, UniProt P48729+Q96SW2); assay: split-CAT selective growth assay, CK1a as ubiquitylation target of CRBN; type: cell-based; conditions: split-CAT system, Cereblon-E2 (Ubc4) fusion, chloramphenicol, 96 and 384 well plates
T2 construct: expressed in transfected cells; host or cells: E. coli
Protocol: as §1, §2
It was expressed in-frame upstream to the N-CAT fragment. […] These assays were performed in 96 and 384 well plates.

[3] = target: T3, GSPT1 ubiquitylation by CRBN (Homo sapiens, UniProt P15170+Q96SW2); assay: split-CAT selective growth assay, GSPT1 as ubiquitylation target of CRBN; type: cell-based; parameters: expressed in transfected cells; host or cells: E. coli; conditions: for growth of E. coli that express GSPT1 (ubiquitylation dependent growth, OD600): split-CAT system, Cereblon-E2 (Ubc4) fusion, LB with chloramphenicol, 96 and 384 well plates
Protocol: as §1, §2, §3
Target sequence in this assay (P15170 whole entry, the tested form may be a part): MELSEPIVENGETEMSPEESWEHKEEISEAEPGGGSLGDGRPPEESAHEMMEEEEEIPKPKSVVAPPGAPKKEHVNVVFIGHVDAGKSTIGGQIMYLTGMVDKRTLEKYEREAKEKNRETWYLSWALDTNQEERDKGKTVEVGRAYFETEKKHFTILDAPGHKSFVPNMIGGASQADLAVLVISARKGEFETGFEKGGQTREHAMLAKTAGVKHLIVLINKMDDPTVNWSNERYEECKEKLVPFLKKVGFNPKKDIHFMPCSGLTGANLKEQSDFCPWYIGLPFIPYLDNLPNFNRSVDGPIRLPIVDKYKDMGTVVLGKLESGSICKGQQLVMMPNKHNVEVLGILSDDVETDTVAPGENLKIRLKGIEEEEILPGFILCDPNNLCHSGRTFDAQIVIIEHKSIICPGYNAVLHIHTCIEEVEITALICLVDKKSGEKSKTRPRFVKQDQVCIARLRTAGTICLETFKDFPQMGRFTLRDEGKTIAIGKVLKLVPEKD
Target sequence in this assay (Q96SW2 whole entry, the tested form may be a part): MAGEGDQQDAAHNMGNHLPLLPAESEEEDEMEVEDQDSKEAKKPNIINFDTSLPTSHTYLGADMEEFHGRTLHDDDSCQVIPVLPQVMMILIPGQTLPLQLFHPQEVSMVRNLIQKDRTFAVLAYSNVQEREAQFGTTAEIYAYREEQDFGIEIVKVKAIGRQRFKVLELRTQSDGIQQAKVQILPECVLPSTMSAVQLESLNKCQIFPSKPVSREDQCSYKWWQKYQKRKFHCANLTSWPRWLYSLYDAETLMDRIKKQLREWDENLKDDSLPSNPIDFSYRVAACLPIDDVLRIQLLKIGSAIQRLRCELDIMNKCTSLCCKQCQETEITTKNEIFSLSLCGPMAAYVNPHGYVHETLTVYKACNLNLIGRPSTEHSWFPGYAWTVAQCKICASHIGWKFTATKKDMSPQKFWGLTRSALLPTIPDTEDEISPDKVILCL
Target sequence in this assay (P15731 whole entry partner, the tested form may be a part): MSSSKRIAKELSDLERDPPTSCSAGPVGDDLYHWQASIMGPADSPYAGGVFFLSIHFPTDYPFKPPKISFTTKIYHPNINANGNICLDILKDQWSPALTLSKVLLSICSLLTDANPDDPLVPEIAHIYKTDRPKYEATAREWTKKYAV
In a third experiment, GSPT1 was analyzed as a potential ubiquitylation target. It was expressed in-frame upstream to the N-CAT fragment. The target was co-expressed with C-CAT-Ub, wheat E1 and Cereblon-E2 (Ubc4) fusion. […] These assays were performed in 96 and 384 well plates.

[4] = target: T3, GSPT1 ubiquitylation by CRBN; conditions: Matyskiela et al. Nature 535, 252-257 (2016); cited from earlier work
Target sequence in this assay (P15170 whole entry, the tested form may be a part): as the sequence (P15170 whole entry, the tested form may be a part) above
Target sequence in this assay (Q96SW2 whole entry, the tested form may be a part): as the sequence (Q96SW2 whole entry, the tested form may be a part) above
Target sequence in this assay (Q16531 whole entry partner, the tested form may be a part): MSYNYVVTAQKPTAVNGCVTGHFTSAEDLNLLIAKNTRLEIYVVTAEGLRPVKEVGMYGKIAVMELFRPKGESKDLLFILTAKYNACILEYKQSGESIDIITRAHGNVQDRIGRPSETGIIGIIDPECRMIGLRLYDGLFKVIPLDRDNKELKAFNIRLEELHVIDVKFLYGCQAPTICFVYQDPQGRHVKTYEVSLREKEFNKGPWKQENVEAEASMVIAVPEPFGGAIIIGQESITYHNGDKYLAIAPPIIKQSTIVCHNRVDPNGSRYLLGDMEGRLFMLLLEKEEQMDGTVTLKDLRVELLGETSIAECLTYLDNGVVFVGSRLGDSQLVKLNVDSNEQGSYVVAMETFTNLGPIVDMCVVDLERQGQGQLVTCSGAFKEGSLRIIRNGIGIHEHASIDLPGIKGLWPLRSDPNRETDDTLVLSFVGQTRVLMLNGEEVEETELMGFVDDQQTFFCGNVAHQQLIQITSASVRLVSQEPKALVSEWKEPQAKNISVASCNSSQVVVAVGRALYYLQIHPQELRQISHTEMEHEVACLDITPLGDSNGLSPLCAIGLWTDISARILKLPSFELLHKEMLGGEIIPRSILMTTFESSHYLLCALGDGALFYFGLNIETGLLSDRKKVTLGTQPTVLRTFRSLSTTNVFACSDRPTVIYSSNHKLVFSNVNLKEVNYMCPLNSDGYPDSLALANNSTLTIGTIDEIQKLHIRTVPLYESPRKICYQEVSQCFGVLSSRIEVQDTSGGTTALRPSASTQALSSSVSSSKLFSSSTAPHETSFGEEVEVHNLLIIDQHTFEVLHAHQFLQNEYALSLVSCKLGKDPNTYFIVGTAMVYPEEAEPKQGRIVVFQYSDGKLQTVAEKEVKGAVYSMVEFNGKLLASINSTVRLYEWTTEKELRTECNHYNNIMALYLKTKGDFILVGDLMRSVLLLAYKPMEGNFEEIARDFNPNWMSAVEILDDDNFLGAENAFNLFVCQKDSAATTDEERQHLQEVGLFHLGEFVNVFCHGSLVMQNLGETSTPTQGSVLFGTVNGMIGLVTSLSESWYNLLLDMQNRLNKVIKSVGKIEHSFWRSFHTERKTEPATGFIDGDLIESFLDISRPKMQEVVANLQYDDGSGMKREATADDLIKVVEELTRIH

T1 sequence (Q13422 whole entry): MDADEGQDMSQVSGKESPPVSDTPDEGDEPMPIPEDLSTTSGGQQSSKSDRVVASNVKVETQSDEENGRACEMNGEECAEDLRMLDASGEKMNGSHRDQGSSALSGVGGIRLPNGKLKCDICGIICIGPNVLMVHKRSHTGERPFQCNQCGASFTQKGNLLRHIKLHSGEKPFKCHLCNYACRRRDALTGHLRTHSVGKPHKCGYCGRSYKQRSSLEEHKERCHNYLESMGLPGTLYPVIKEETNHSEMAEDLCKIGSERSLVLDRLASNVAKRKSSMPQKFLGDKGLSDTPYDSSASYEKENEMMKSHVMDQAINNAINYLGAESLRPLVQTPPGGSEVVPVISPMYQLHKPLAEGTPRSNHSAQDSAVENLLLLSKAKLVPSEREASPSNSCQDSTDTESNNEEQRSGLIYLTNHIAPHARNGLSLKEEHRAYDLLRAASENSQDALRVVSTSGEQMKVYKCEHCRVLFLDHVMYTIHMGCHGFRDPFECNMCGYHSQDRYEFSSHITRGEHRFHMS
T1 sequence (Q96SW2 whole entry): as the sequence (Q96SW2 whole entry, the tested form may be a part) above
T1 sequence (P15731 whole entry partner): as the sequence (P15731 whole entry partner, the tested form may be a part) above
T2 sequence (P48729 whole entry, the tested form may be a part): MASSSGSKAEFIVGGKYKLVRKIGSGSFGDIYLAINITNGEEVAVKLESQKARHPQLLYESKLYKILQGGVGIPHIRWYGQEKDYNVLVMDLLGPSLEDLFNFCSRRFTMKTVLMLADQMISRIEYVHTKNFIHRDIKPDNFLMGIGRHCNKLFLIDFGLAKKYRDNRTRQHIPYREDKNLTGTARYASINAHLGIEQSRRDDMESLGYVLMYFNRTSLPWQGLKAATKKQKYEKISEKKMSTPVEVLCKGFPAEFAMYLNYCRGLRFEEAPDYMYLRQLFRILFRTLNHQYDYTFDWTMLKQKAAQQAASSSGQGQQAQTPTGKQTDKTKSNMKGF
T2 sequence (Q96SW2 whole entry, the tested form may be a part): as the sequence (Q96SW2 whole entry, the tested form may be a part) above
T2 sequence (P15731 whole entry partner, the tested form may be a part): as the sequence (P15731 whole entry partner, the tested form may be a part) above

| SMILES | shape of dose response curve (growth), IKZF1 target ([1]; increased concentration of drug, split-CAT selection system) | growth of E. coli that express IKZF1 (ubiquitylation dependent growth, OD600) ([1]; split-CAT system, Cereblon-E2 (Ubc4) fusion, LB with chloramphenicol, 96 and 384 well plates) | growth of E. coli that express CK1a (ubiquitylation dependent growth, OD600) [2] | growth of E. coli that express GSPT1 (ubiquitylation dependent growth, OD600) ([3]; listed as TLD) | CRBN dependent ubiquitylation of GSPT1 in the presence of the drug [4] | shape of dose response curve (growth), GSPT1 target ([3]; increased concentration of drug, selective conditions with chloramphenicol) | growth of E. coli that express GSPT1 (ubiquitylation dependent growth, OD600) [3] |
| --- | --- | --- | --- | --- | --- | --- | --- |
| O=C1CCC(N2C(=O)c3ccccc3C2=O)C(=O)N1 (stereo not shown) [Thalidomide] | optimum characteristic response | significantly promoted the growth | significantly promoted the growth | not promoted | – | – | – |
| Cc1ccc(NC(=O)NCc2ccc3c(c2)CN(C2CCC(=O)NC2=O)C3=O)cc1Cl (stereo not shown) [CC-885] | – | – | – | – | undergo CRBN dependent ubiquitylation | classical bell-shaped activity (growth) curve | significantly promoted the growth |
